Data on 23 molecules can be found in patent US9561231B2 (AbbVie Inc., priority 2012, dated 2017).

The Ki is the dissociation constant of the complex between target and ligand, obtained from inhibition or displacement.

Where two headings read alike, the source gives them in different places.

Assay [1] concerns the target T1, first (BD1: amino acids K57-E168) bromodomain of BRD4 (Homo sapiens, UniProt O60885).
T1 construct: His-tagged first (BD1: amino acids K57-E168)
Briefly: TR-FRET bromodomain binding assay, BRD4 BD1. Conditions: Ki calculated from IC50, probe Kd and probe concentration, read-out: TR-FRET Binding Ki: BRD4 (BDI_K57-E168). The gist of the method: (§1)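 His-tagged BRD4 bromodomain competed against an Alexa647-labeled BET-inhibitor probe by TR-FRET in 20 mM sodium phosphate pH 6.0, 50 mM NaCl, 1 mM EDTA, 0.01% Triton X-100, 1 mM DTT.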

Assay [2] has as its system breast cancer cell line MX-1. Briefly: MX-1 cell line proliferation assay (3-day). Format: cell-based. As to conditions: Homo sapiens, MX1, MX-1 cells, Cell Titer Glo, read-out: Cellular proliferation: EC50. The gist of the method: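 MX-1 cells in RPMI/10% FBS, plated 5000/well overnight, then exposed to compound at final 3 to 0.0001 μM (3-fold series) for 3 days at 37° C. Cell Titer Glo luminescence normalized to DMSO-treated cells; EC50 from sigmoidal curve fit.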

In assay [3] the target is T2, second (BD2: amino acids E352-E168) bromodomain of BRD4 (Homo sapiens, UniProt O60885).
T2 construct: protocol
Kind of assay: TR-FRET bromodomain binding assay, BRD4 BD2. Conditions: Ki calculated from IC50, probe Kd and probe concentration, read-out: TR-FRET Binding Ki: BRD4 (BDII_E352-M457). The gist of the method: as §1

The mark [4] stands for this setting: TR-FRET assay protocol (A-G, compound concentration range).
Where [5] appears, read: TR-FRET assay protocol (D, E or G) per compound.

Regarding `CCOc1cc(=O)n(C)cc1-c1cc(NS(=O)(=O)c2ccc(C(C)C)cc2)ccc1Oc1ccc(F)cc1F` [Example 347, N-[4-(2,4-difluorophenoxy)-3-(4-ethoxy-1-methyl-6-oxo-1,6-dihydropyridin-3-yl)phenyl]-4-(propan-2-yl)benzenesulfonamide], the Ki in assay [1] (setting [4]) was 169 nM; in assay [3] (setting [4]), 53.4 nM. Besides, in assay [2] (72 h incubation), the EC50 amounted to 1560 nM.

With `CCCS(=O)(=O)Nc1ccc(Oc2ccc(F)cc2F)c(-c2cn(C)c(=O)cc2OCC)c1` [Example 349, N-[4-(2,4-difluorophenoxy)-3-(4-ethoxy-1-methyl-6-oxo-1,6-dihydropyridin-3-yl)phenyl]propane-1-sulfonamide], the results for the Ki in assay [1] (setting [4]) and in assay [3] (setting [4]) were 43.8 nM and 8.71 nM, respectively. Moreover, in assay [2] (72 h incubation), the EC50 stood at 151 nM.

As for `CCOc1cc(=O)n(C)cc1-c1cc(NS(=O)(=O)Cc2ccccc2F)ccc1Oc1ccc(F)cc1F` [Example 351, N-[4-(2,4-difluorophenoxy)-3-(4-ethoxy-1-methyl-6-oxo-1,6-dihydropyridin-3-yl)phenyl]-1-(2-fluorophenyl)methanesulfonamide], the Ki in assay [1] (setting [4]) was 25.7 nM; in assay [3] (setting [4]), 29.8 nM. Besides, in assay [2] (72 h incubation), the EC50 was 360 nM.

For the molecule `CCS(=O)(=O)Nc1ccc(Oc2ccc(F)cc2F)c(-c2cc(F)c(=O)n(C)c2)c1` [Example 352, N-[4-(2,4-difluorophenoxy)-3-(5-fluoro-1-methyl-6-oxo-1,6-dihydropyridin-3-yl)phenyl]ethanesulfonamide], the Ki in assay [1] (setting [4]) is 26.8 nM; in assay [3] (setting [4]) it was 77.9 nM. Also, the EC50 in assay [2] (72 h incubation) was determined as 256 nM.

Turning to `CCS(=O)(=O)Nc1ccc(Oc2ccc(F)cc2F)c(-c2cn(C)c(=O)cc2NCC2CC2)c1` [Example 353, N-[3-{4-[(cyclopropylmethyl)amino]-1-methyl-6-oxo-1,6-dihydropyridin-3-yl}-4-(2,4-difluorophenoxy)phenyl]ethanesulfonamide], the Ki is 4.41 nM in assay [1] (setting [4]) and 2.3 nM in assay [3] (setting [4]). Further, the EC50 in assay [2] (72 h incubation) came to 56.9 nM.

On to `CCCc1cc(=O)n(C)cc1-c1cc(NS(=O)(=O)CC)ccc1Oc1ccc(F)cc1F` [Example 359, N-[4-(2,4-difluorophenoxy)-3-(1-methyl-6-oxo-4-propyl-1,6-dihydropyridin-3-yl)phenyl]ethanesulfonamide], for which the Ki in assay [1] (setting [4]) is 12.6 nM; in assay [3] (setting [4]), 5.1 nM. Besides, the EC50 in assay [2] (72 h incubation) was found to be 112 nM.

For the molecule `CCS(=O)(=O)Nc1ccc(Oc2ccc(F)cc2F)c(-c2cn(C)c(=O)cc2NC2CC2)c1` [Example 362, N-{3-[4-(cyclopropylamino)-1-methyl-6-oxo-1,6-dihydropyridin-3-yl]-4-(2,4-difluorophenoxy)phenyl}ethanesulfonamide], the values for the inhibitory constant (Ki) in assay [1] (setting [4]) and in assay [3] (setting [4]) were 5.81 nM and 2.76 nM, respectively. Further, the EC50 in assay [2] (72 h incubation) turned out to be 33.6 nM.

On to `CC(C)S(=O)(=O)c1ccc(Oc2ccc(F)cc2F)c(-c2ccc(=O)n(C)c2)c1` [Example 364, 5-[2-(2,4-difluorophenoxy)-5-(propan-2-ylsulfonyl)phenyl]-1-methylpyridin-2(1H)-one], for which the values for the Ki in assay [1] (setting [4]) and in assay [3] (setting [4]) were 84.4 nM and 153 nM, respectively. Also, the EC50 in assay [2] (72 h incubation) stood at 878 nM.

Take `CCOc1cc(=O)n(C)cc1-c1cc(CS(C)(=O)=O)ccc1Oc1ccc(F)cc1F` [Example 370, 5-{2-(2,4-difluorophenoxy)-5-[(methylsulfonyl)methyl]phenyl}-4-ethoxy-1-methylpyridin-2(1H)-one]: the Ki is 52.7 nM in assay [1] (setting [4]) and 39.5 nM in assay [3] (setting [4]). The EC50 in assay [2] (72 h incubation) was 135 nM.

As for `CCS(=O)(=O)Nc1ccc(Oc2ccc(F)cc2F)c(-c2cn(C)c(=O)cc2OCCC(C)(C)O)c1` [Example 372, N-{4-(2,4-difluorophenoxy)-3-[4-(3-hydroxy-3-methylbutoxy)-1-methyl-6-oxo-1,6-dihydropyridin-3-yl]phenyl}ethanesulfonamide], the Ki in assay [1] (setting [4]) is 33.5 nM; in assay [3] (setting [4]), 14.3 nM. The EC50 in assay [2] (72 h incubation) stood at 205 nM.

As for `CCOc1cc(=O)n(C)cc1-c1cc(S(=O)(=O)CC)ccc1NC1CC1` [Example 373, 5-[2-(cyclopropylamino)-5-(ethylsulfonyl)phenyl]-4-ethoxy-1-methylpyridin-2(1H)-one], the Ki in assay [1] (setting [5]) was 118 nM; in assay [3] (setting [5]), 167 nM. Further, the EC50 in assay [2] (72 hours with compound) was 859 nM.

Turning to `CCS(=O)(=O)Nc1ccc(Oc2ccc(F)cc2F)c(-c2cn(C)c(=O)cc2OCC(C)(C)O)c1` [Example 376, N-{4-(2,4-difluorophenoxy)-3-[4-(2-hydroxy-2-methylpropoxy)-1-methyl-6-oxo-1,6-dihydropyridin-3-yl]phenyl}ethanesulfonamide], the Ki in assay [1] (setting [5]) is 123 nM; in assay [3] (setting [5]) it was 17.1 nM. Besides, the EC50 in assay [2] (72 hours with compound) was 708 nM.

`CCOc1cc(=O)n(C)cc1-c1cc(S(=O)(=O)CC)ccc1Oc1ccc(OC(F)(F)F)cc1` [Example 377, 4-ethoxy-5-{5-(ethylsulfonyl)-2-[4-(trifluoromethoxy)phenoxy]phenyl}-1-methylpyridin-2(1H)-one]: the inhibition constant (Ki) is 53.4 nM in assay [1] (setting [5]) and 6.41 nM in assay [3] (setting [5]). In addition, in assay [2] (72 hours with compound), the EC50 was 92.4 nM.

In the case of `CCOc1cc(=O)n(C)cc1-c1cc(S(=O)(=O)CC)ccc1Oc1ccc(C#N)cc1` [Example 378, 4-[2-(4-ethoxy-1-methyl-6-oxo-1,6-dihydropyridin-3-yl)-4-(ethylsulfonyl)phenoxy]benzonitrile], the inhibition constant (Ki) in assay [1] (setting [5]) was 113 nM; in assay [3] (setting [5]), 31.7 nM. In addition, the EC50 in assay [2] (72 hours with compound) was 103 nM.

On to `CCOc1cc(=O)n(C)cc1-c1cc(CS(=O)(=O)CC)ccc1Oc1ccc(F)cc1F` [Example 379, 5-{2-(2,4-difluorophenoxy)-5-[(ethylsulfonyl)methyl]phenyl}-4-ethoxy-1-methylpyridin-2(1H)-one], for which the figures for the Ki in assay [1] (setting [5]) and in assay [3] (setting [5]) were 62.1 nM and 16.1 nM, respectively. In addition, in assay [2] (72 hours with compound), the EC50 is 126 nM.

Take `CCOc1cc(=O)n(C)cc1-c1cc(C(C)(C)S(=O)(=O)CC)ccc1Oc1ccc(F)cc1F` [Example 380, 5-{2-(2,4-difluorophenoxy)-5-[2-(ethylsulfonyl)propan-2-yl]phenyl}-4-ethoxy-1-methylpyridin-2(1H)-one]: the figures for the inhibition constant (Ki) in assay [1] (setting [5]) and in assay [3] (setting [5]) were 14.3 nM and 3.88 nM, respectively. Moreover, the EC50 in assay [2] (72 hours with compound) was 38.4 nM.

Consider `CCOc1cc(=O)n(C)cc1-c1cc(NS(=O)(=O)CC)ccc1OCC1CC1` [Example 381, N-[4-(cyclopropylmethoxy)-3-(4-ethoxy-1-methyl-6-oxo-1,6-dihydropyridin-3-yl)phenyl]ethanesulfonamide], for which the inhibition constant Ki is 33.4 nM in assay [1] (setting [5]) and 56.1 nM in assay [3] (setting [5]). Besides, the EC50 in assay [2] (72 hours with compound) was 115 nM.

Regarding `CCOc1cc(=O)n(C)cc1-c1cc(NS(=O)(=O)CC)ccc1OCCC1CC1` [Example 383, N-[4-(2-cyclopropylethoxy)-3-(4-ethoxy-1-methyl-6-oxo-1,6-dihydropyridin-3-yl)phenyl]ethanesulfonamide], the values for the Ki in assay [1] (setting [5]) and in assay [3] (setting [5]) were 43.2 nM and 82.8 nM, respectively. The EC50 in assay [2] (72 hours with compound) worked out at 83.6 nM.

For the molecule `CCOc1cc(=O)n(C)cc1-c1cc(NS(=O)(=O)CC)ccc1OC1CCC1` [Example 384, N-[4-(cyclobutyloxy)-3-(4-ethoxy-1-methyl-6-oxo-1,6-dihydropyridin-3-yl)phenyl]ethanesulfonamide], the Ki is 65.3 nM in assay [1] (setting [5]) and 146 nM in assay [3] (setting [5]). The EC50 in assay [2] (72 hours with compound) was 237 nM.

Turning to `CCOc1cc(=O)n(C)cc1-c1cc(NS(=O)(=O)CC)ccc1OC1CCC(F)(F)CC1` [Example 385, N-{4-[(4,4-difluorocyclohexyl)oxy]-3-(4-ethoxy-1-methyl-6-oxo-1,6-dihydropyridin-3-yl)phenyl}ethanesulfonamide], the Ki was 55.3 nM in assay [1] (setting [5]) and 140 nM in assay [3] (setting [5]). The EC50 in assay [2] (72 hours with compound) was found to be 254 nM.

As for `CCOc1cc(=O)n(C)cc1-c1cc(NS(=O)(=O)CC)ccc1Oc1ccc(C(F)(F)F)cc1` [Example 386, N-{3-(4-ethoxy-1-methyl-6-oxo-1,6-dihydropyridin-3-yl)-4-[4-(trifluoromethyl)phenoxy]phenyl}ethanesulfonamide], the Ki in assay [1] (setting [5]) is 81.8 nM; in assay [3] (setting [5]), 10.2 nM. Further, the EC50 in assay [2] (72 hours with compound) turned out to be 54.1 nM.

With `CCS(=O)(=O)Nc1ccc(Oc2ccc(F)cc2F)c(-c2cn(C)c(=O)cc2-c2cnn(Cc3ccccc3)c2)c1` [Example 390, N-{3-[4-(1-benzyl-1H-pyrazol-4-yl)-1-methyl-6-oxo-1,6-dihydropyridin-3-yl]-4-(2,4-difluorophenoxy)phenyl}ethanesulfonamide], the inhibitory constant (Ki) in assay [1] (setting [5]) was 36.5 nM; in assay [3] (setting [5]), 13.5 nM. The EC50 in assay [2] (72 hours with compound) amounted to 79.8 nM.

Turning to `CCS(=O)(=O)Nc1ccc(Oc2ccc(F)cc2F)c(-c2cn(C)c(=O)cc2-c2cnn(CC(C)C)c2)c1` [Example 391, N-[4-(2,4-difluorophenoxy)-3-{1-methyl-4-[1-(2-methylpropyl)-1H-pyrazol-4-yl]-6-oxo-1,6-dihydropyridin-3-yl]phenyl}ethanesulfonamide], the results for the Ki in assay [1] (setting [5]) and in assay [3] (setting [5]) were 9.05 nM and 4.59 nM, respectively. In addition, the EC50 in assay [2] (72 hours with compound) was found to be 57.3 nM.
